Assay results taken from patent US8735414B2 (priority 2009, dated 2014).
pIC50: −log10 of the molar value.

Tests used:
[1] = tested on: bicistronic HCV replicon (replicon RNA, GenBank Accession No. AJ242654); assay: HCV Replicon Assay; type: cell-based; details: Hepatitis C virus, 72 h, read-out: Replicon IC50

SMILES: CC(C)NS(=O)(=O)c1cnc(-c2c(C(N)=O)c3cc(Cl)ccc3n2C2CCC2)nc1 [compound 745, 5-chloro-1-cyclobutyl-2-[5-(propan-2-ylsulfamoyl)pyrimidin-2-yl]-1H-indole-3-carboxamide]
- pIC50 [1]: > 6.30
- melting point: 245 to 247 °C

SMILES: Cc1ccc2c(C#N)c(-c3ncc(S(=O)(=O)N[C@@H](C)C(F)(F)F)cn3)n(C3CCCC3)c2c1 [compound 404, 2-(3-cyano-1-cyclopentyl-6-methyl-1H-indol-2-yl)-N-[(2S)-1,1,1-trifluoropropan-2-yl]pyrimidine-5-sulfonamide]
- pIC50 [1]: > 6.30
- melting point: 223 to 224 °C

SMILES: CC(C)NS(=O)(=O)c1cnc(-c2c(C#N)c3cc(Cl)ccc3n2C2CCCCC2)nc1 [compound 97, 2-(5-chloro-3-cyano-1-cyclohexyl-1H-indol-2-yl)-N-(propan-2-yl)pyrimidine-5-sulfonamide]
- pIC50 [1]: 5.70 to 6.30
- melting point: 210 to 215 °C

SMILES: Cc1ccc2c(c1)c(C#N)c(-c1ccc(S(=O)(=O)N[C@@H](C)C3CC3)cn1)n2C(C)C [compound 564, 6-[3-cyano-5-methyl-1-(propan-2-yl)-1H-indol-2-yl]-N-[(1S)-1-cyclopropylethyl]pyridine-3-sulfonamide]
- pIC50 [1]: > 6.30
- melting point: 170 to 173 °C

SMILES: C[C@H](NS(=O)(=O)c1ccc(-c2c(C(N)=O)c3c(F)cc(OC(F)F)cc3n2CC2CC2)nc1)C(F)(F)F [compound 840, 1-(cyclopropylmethyl)-6-(difluoromethoxy)-4-fluoro-2-(5-{[(2S)-1,1,1-trifluoropropan-2-yl]sulfamoyl}pyridin-2-yl)-1H-indole-3-carboxamide]
- pIC50 [1]: > 6.30
- melting point: 211 to 212 °C

SMILES: Cc1cc2c(cc1Cl)c(C#N)c(-c1ncc(S(=O)(=O)NC(CF)CF)cn1)n2C1CCC1 [compound 447, 2-(5-chloro-3-cyano-1-cyclobutyl-6-methyl-1H-indol-2-yl)-N-(1,3-difluoropropan-2-yl)pyrimidine-5-sulfonamide]
- pIC50 [1]: > 6.30
- melting point: 275 to 279 °C

SMILES: C[C@H](NS(=O)(=O)c1ccc(-c2c(C#N)c3cc(F)c(C4CC4)cc3n2-c2ncccn2)nc1)C(F)(F)F [compound 820, 6-[3-cyano-6-cyclopropyl-5-fluoro-1-(pyrimidin-2-yl)-1H-indol-2-yl]-N-[(2S)-1,1,1-trifluoropropan-2-yl]pyridine-3-sulfonamide]
- pIC50 [1]: > 6.30
- melting point: 236 to 240 °C

SMILES: CCc1cc2c(cc1F)c(C(N)=O)c(-c1ccc(S(=O)(=O)N[C@@H](C)C(F)(F)F)cn1)n2-c1ccc(F)cc1 [compound 1019, 6-ethyl-5-fluoro-1-(4-fluorophenyl)-2-(5-{[(2S)-1,1,1-trifluoropropan-2-yl]sulfamoyl}pyridin-2-yl)-1H-indole-3-carboxamide]
- pIC50 [1]: > 6.30
- melting point: 210 to 217 °C

SMILES: CC(C)(CF)NS(=O)(=O)c1ccc(-c2c(C#N)c3ccc(OC(F)F)cc3n2C2CCCC2)nc1 [compound 67, 6-[3-cyano-1-cyclopentyl-6-(difluoromethoxy)-1H-indol-2-yl]-N-(1-fluoro-2-methylpropan-2-yl)pyridine-3-sulfonamide]
- pIC50 [1]: > 6.30
- melting point: 224 to 229 °C

SMILES: Cc1cc2c(cc1F)c(C#N)c(-c1ccc(S(=O)(=O)N[C@@H](C)C(F)(F)F)cn1)n2-c1ccnc(F)c1 [compound 1013, 6-[3-cyano-5-fluoro-1-(2-fluoropyridin-4-yl)-6-methyl-1H-indol-2-yl]-N-[(2S)-1,1,1-trifluoropropan-2-yl]pyridine-3-sulfonamide]
- pIC50 [1]: > 6.30
- melting point: 243.4 to 246.9 °C

SMILES: CC(C)NS(=O)(=O)c1ccc(-c2c(C#N)c3cc(F)ccc3n2CC2CC2)nc1 [compound 6, 6-[3-cyano-1-(cyclopropylmethyl)-5-fluoro-1H-indol-2-yl]-N-(propan-2-yl)pyridine-3-sulfonamide]
- pIC50 [1]: > 6.30
- melting point: 160 to 162 °C

SMILES: N#Cc1c(-c2ccc(S(=O)(=O)NC(CF)CF)cn2)n(CC2CC2)c2cc(OC(F)F)ccc12 [compound 41, 6-[3-cyano-1-(cyclopropylmethyl)-6-(difluoromethoxy)-1H-indol-2-yl]-N-(1,3-difluoropropan-2-yl)pyridine-3-sulfonamide]
- pIC50 [1]: > 6.30
- melting point: 150 to 151 °C

SMILES: Cc1cc2c(cc1F)c(C#N)c(-c1ccc(S(=O)(=O)N[C@@H](C)C(F)(F)F)cn1)n2-c1ncc(CO)s1 [compound 984, 6-{3-cyano-5-fluoro-1-[5-(hydroxymethyl)-1,3-thiazol-2-yl]-6-methyl-1H-indol-2-yl}-N-[(2S)-1,1,1-trifluoropropan-2-yl]pyridine-3-sulfonamide]
- pIC50 [1]: > 6.30
- melting point: 180 to 185 °C

SMILES: CS(=O)(=O)Nc1ccc(-c2c(C#N)c3ccc(C4CC4)cc3n2C2CCC2)cn1 [compound 287, N-[5-(3-cyano-1-cyclobutyl-6-cyclopropyl-1H-indol-2-yl)pyridin-2-yl]methanesulfonamide]
- pIC50 [1]: 5.70 to 6.30
- melting point: 239 to 241 °C

SMILES: CC(C)NS(=O)(=O)c1cnc(-c2c(C#N)c3ccc(CC(F)F)cc3n2C2CCCC2)nc1 [compound 598, 2-[3-cyano-1-cyclopentyl-6-(2,2-difluoroethyl)-1H-indol-2-yl]-N-(propan-2-yl)pyrimidine-5-sulfonamide]
- pIC50 [1]: > 6.30
- melting point: 204 to 218 °C

SMILES: CC(=O)c1cc2c(cc1F)c(C#N)c(-c1ccc(S(=O)(=O)N[C@@H](C)C(F)(F)F)cn1)n2-c1ncccn1 [compound 907, 6-[6-acetyl-3-cyano-5-fluoro-1-(pyrimidin-2-yl)-1H-indol-2-yl]-N-[(2S)-1,1,1-trifluoropropan-2-yl]pyridine-3-sulfonamide]
- pIC50 [1]: > 6.30
- melting point: 220 to 221 °C

SMILES: N#Cc1c(-c2ccc(S(=O)(=O)NC(CF)CF)cn2)n(C2CCCCC2)c2cc(F)ccc12 [compound 234, 6-(3-cyano-1-cyclohexyl-6-fluoro-1H-indol-2-yl)-N-(1,3-difluoropropan-2-yl)pyridine-3-sulfonamide]
- pIC50 [1]: > 6.30
- melting point: 193 to 199 °C

SMILES: Cc1cc(F)c2c(C#N)c(-c3ccc(S(=O)(=O)NC(C)(C)C(F)(F)F)cn3)n(C3CCCC3)c2c1 [compound 626, 6-(3-cyano-1-cyclopentyl-4-fluoro-6-methyl-1H-indol-2-yl)-N-(1,1,1-trifluoro-2-methylpropan-2-yl)pyridine-3-sulfonamide]
- pIC50 [1]: > 6.30
- melting point: 218 to 223 °C

SMILES: COc1ccc2c(c1)c(C#N)c(-c1ccc(S(=O)(=O)NC(CF)CF)cn1)n2C1CCCC1 [compound 571, 6-(3-cyano-1-cyclopentyl-5-methoxy-1H-indol-2-yl)-N-(1,3-difluoropropan-2-yl)pyridine-3-sulfonamide]
- pIC50 [1]: > 6.30
- melting point: 167 to 169 °C

SMILES: CCS(=O)(=O)Nc1ccc(-c2c(C#N)c3ccc(OC)cc3n2C2CCC2)nn1 [compound 277, N-[6-(3-cyano-1-cyclobutyl-6-methoxy-1H-indol-2-yl)pyridazin-3-yl]ethanesulfonamide]
- pIC50 [1]: > 6.30
- melting point: 212 to 214 °C

SMILES: CCc1cc2c(cc1F)c(C#N)c(-c1ccc(S(=O)(=O)NC(C)(C)C)cn1)n2-c1cnccn1 [compound 899, N-tert-butyl-6-[3-cyano-6-ethyl-5-fluoro-1-(pyrazin-2-yl)-1H-indol-2-yl]pyridine-3-sulfonamide]
- pIC50 [1]: > 6.30
- melting point: 196 to 201 °C
